For 19 molecules, EC50 results are on record in patent publication US8951964B2, “Phenanthridine macrocyclic hepatitis C serine protease inhibitors” (priority 2010, dated 2015).

What all share (format): cell-based, HCV
Experiment [1] deals with genotype 1a replicon (1a-H77). Description: 1a stable replicon (luciferase reporter). To be noted: Hepatitis C virus, Huh-7, luciferase reporter, HuH-7 cells, 5% FBS.
Experiment [2] relates to genotype 1b replicon (1b-Con1, 1b-N). Description: 1b stable replicon (luciferase reporter). To be noted: Hepatitis C virus, HuH-7 cells, 5% FBS. (In general: Replicon systems follow genome replication, usually without infectious particles.)
The test system of experiment [3] is genotype 1a transient replicon (1a-H77). Description: 1a transient replicon (luciferase reporter). As to conditions: Hepatitis C virus, HuH-7 cells, 5% FBS.
Experiment [4] relates to genotype 1b transient replicon. Nature of the experiment: 1b transient replicon (luciferase reporter). As to conditions: Hepatitis C virus, HuH-7 cells, 5% FBS.
Experiment [5] deals with genotype 3a NS3 gene in transient replicon. Description: 3a transient replicon (luciferase reporter). As to conditions: Hepatitis C virus, Huh-7, read-out: 3a transient replicon (nM).

Take `Cc1cc(C(=O)N[C@H]2CCCCC/C=C\[C@@H]3C[C@@]3(C(=O)NS(=O)(=O)C3CC3)NC(=O)[C@@H]3C[C@@H](Oc4nc5cc(F)ccc5c5cc(F)ccc45)CN3C2=O)no1`: the EC50 in experiment [1] was 0.1 to 0.5 nM; in experiment [2] it was 0.1 to 0.5 nM; in experiment [3], 0.1 to 0.5 nM; in experiment [4] it was 0.1 to 0.5 nM; in experiment [5] it was more than 1 nM.
On to `Cc1cc(C(=O)N[C@H]2CCCCC/C=C\[C@@H]3C[C@@]3(C(=O)NS(=O)(=O)C3(C)CC3)NC(=O)[C@@H]3C[C@@H](Oc4nc5cc(F)ccc5c5ccccc45)CN3C2=O)no1`, for which the EC50 was 0.1 to 0.5 nM in experiment [1]; 0.1 to 0.5 nM in experiment [2]; less than 0.1 nM in experiment [3]; 0.1 to 0.5 nM in experiment [4]; more than 1 nM in experiment [5].
As to `Cc1cc(C(=O)N[C@H]2CCCCC/C=C\[C@@H]3C[C@@]3(C(=O)NS(=O)(=O)C3(C)CC3)NC(=O)[C@@H]3C[C@@H](Oc4nc5cc(F)ccc5c5cc(F)ccc45)CN3C2=O)no1`, the EC50 was 0.1 to 0.5 nM in experiment [1]; 0.1 to 0.5 nM in experiment [2]; less than 0.1 nM in experiment [3]; 0.1 to 0.5 nM in experiment [4]; more than 1 nM in experiment [5].
Consider `CC1(S(=O)(=O)NC(=O)[C@@]23C[C@H]2/C=C\CCCCC[C@H](NC(=O)c2cncs2)C(=O)N2C[C@H](Oc4nc5cc(F)ccc5c5ccccc45)C[C@H]2C(=O)N3)CC1`, for which the EC50 in experiment [1] is 0.5 to 1 nM; in experiment [2], 0.5 to 1 nM; in experiment [3], less than 0.1 nM; in experiment [4], 0.1 to 0.5 nM; in experiment [5], more than 1 nM.
Take `COc1ccc2c(c1)c(O[C@@H]1C[C@H]3C(=O)N[C@]4(C(=O)NS(=O)(=O)C5CC5)C[C@H]4/C=C\CCCCC[C@H](NC(=O)c4cc(C)on4)C(=O)N3C1)nc1cc(OC(F)(F)F)ccc12`: the EC50 in experiment [1] is 0.5 to 1 nM; in experiment [2], 0.1 to 0.5 nM; in experiment [3] it was less than 0.1 nM; in experiment [4], less than 0.1 nM; in experiment [5] it was 0.5 to 1 nM.
For the molecule `Cc1cc(C(=O)N[C@H]2CCCCC/C=C\[C@@H]3C[C@@]3(C(=O)NS(=O)(=O)C3CC3)NC(=O)[C@@H]3C[C@@H](Oc4nc5cc(OC(F)(F)F)ccc5c5ccccc45)CN3C2=O)no1`, the EC50 was 0.5 to 1 nM in experiment [1]; 0.1 to 0.5 nM in experiment [2]; less than 0.1 nM in experiment [3]; less than 0.1 nM in experiment [4]; 0.5 to 1 nM in experiment [5].
Take `Cc1cc(C(=O)N[C@H]2CCCCC/C=C\[C@@H]3C[C@@]3(C(=O)NS(=O)(=O)C3(C)CC3)NC(=O)[C@@H]3C[C@@H](Oc4nc5cc(OC(F)(F)F)ccc5c5ccccc45)CN3C2=O)no1`: the EC50 in experiment [1] is 0.5 to 1 nM; in experiment [2] it was 0.1 to 0.5 nM; in experiment [3], 0.1 to 0.5 nM; in experiment [4], 0.1 to 0.5 nM; in experiment [5], more than 1 nM.
For the molecule `Cc1cc(C(=O)N[C@H]2CCCCC/C=C\[C@@H]3C[C@@]3(C(=O)NS(=O)(=O)C3CC3)NC(=O)[C@@H]3C[C@@H](Oc4nc5ccccc5c5cccc(F)c45)CN3C2=O)no1`, the EC50 is 0.1 to 0.5 nM in experiment [1]; 0.1 to 0.5 nM in experiment [2]; less than 0.1 nM in experiment [3]; 0.1 to 0.5 nM in experiment [4]; more than 1 nM in experiment [5].
Regarding `CC1(S(=O)(=O)NC(=O)[C@@]23C[C@H]2/C=C\CCCCC[C@H](NC(=O)c2cscn2)C(=O)N2C[C@H](Oc4nc5cc(F)ccc5c5cc(F)ccc45)C[C@H]2C(=O)N3)CC1`, the EC50 is 0.5 to 1 nM in experiment [1]; 0.1 to 0.5 nM in experiment [2]; less than 0.1 nM in experiment [3]; 0.1 to 0.5 nM in experiment [4]; more than 1 nM in experiment [5].
`CC1(S(=O)(=O)NC(=O)[C@@]23C[C@H]2/C=C\CCCCC[C@H](NC(=O)c2cncs2)C(=O)N2C[C@H](Oc4nc5cc(F)ccc5c5cc(F)ccc45)C[C@H]2C(=O)N3)CC1`: the EC50 is more than 1 nM in experiment [1]; 0.1 to 0.5 nM in experiment [2]; less than 0.1 nM in experiment [3]; 0.1 to 0.5 nM in experiment [4]; more than 1 nM in experiment [5].
With `CC1(S(=O)(=O)NC(=O)[C@@]23C[C@H]2/C=C\CCCCC[C@H](NC(=O)c2cscn2)C(=O)N2C[C@H](Oc4nc5ccccc5c5cc(F)ccc45)C[C@H]2C(=O)N3)CC1`, the EC50 in experiment [1] was 0.5 to 1 nM; in experiment [2], 0.1 to 0.5 nM; in experiment [3], 0.1 to 0.5 nM; in experiment [4] it was 0.1 to 0.5 nM; in experiment [5] it was more than 1 nM.
With `CC1(S(=O)(=O)NC(=O)[C@@]23C[C@H]2/C=C\CCCCC[C@H](NC(=O)c2cncs2)C(=O)N2C[C@H](Oc4nc5ccccc5c5cc(F)ccc45)C[C@H]2C(=O)N3)CC1`, the EC50 was 0.5 to 1 nM in experiment [1]; 0.1 to 0.5 nM in experiment [2]; less than 0.1 nM in experiment [3]; 0.1 to 0.5 nM in experiment [4]; more than 1 nM in experiment [5].
Regarding `CC1(S(=O)(=O)NC(=O)[C@@]23C[C@H]2/C=C\CCCCC[C@H](NC(=O)c2ccns2)C(=O)N2C[C@H](Oc4nc5cc(F)ccc5c5ccccc45)C[C@H]2C(=O)N3)CC1`, the EC50 in experiment [1] is 0.5 to 1 nM; in experiment [2], 0.1 to 0.5 nM; in experiment [3], less than 0.1 nM; in experiment [4], 0.1 to 0.5 nM; in experiment [5] it was more than 1 nM.
For the molecule `CC1(S(=O)(=O)NC(=O)[C@@]23C[C@H]2/C=C\CCCCC[C@H](NC(=O)c2ccon2)C(=O)N2C[C@H](Oc4nc5cc(F)ccc5c5ccccc45)C[C@H]2C(=O)N3)CC1`, the EC50 is 0.1 to 0.5 nM in experiment [1]; 0.1 to 0.5 nM in experiment [2]; less than 0.1 nM in experiment [3]; 0.1 to 0.5 nM in experiment [4]; 0.5 to 1 nM in experiment [5].
For `CC1(S(=O)(=O)NC(=O)[C@@]23C[C@H]2/C=C\CCCCC[C@H](NC(=O)[C@@H](O)C(F)(F)F)C(=O)N2C[C@H](Oc4nc5cc(F)ccc5c5ccccc45)C[C@H]2C(=O)N3)CC1`, the EC50 in experiment [1] is 0.5 to 1 nM; in experiment [2] it was 0.1 to 0.5 nM; in experiment [3] it was less than 0.1 nM; in experiment [4], 0.1 to 0.5 nM; in experiment [5], more than 1 nM.
`Cc1ccc(C(=O)N[C@H]2CCCCC/C=C\[C@@H]3C[C@@]3(C(=O)NS(=O)(=O)C3(C)CC3)NC(=O)[C@@H]3C[C@@H](Oc4nc5cc(F)ccc5c5ccccc45)CN3C2=O)o1`: the EC50 was 0.5 to 1 nM in experiment [1]; 0.1 to 0.5 nM in experiment [2]; 0.1 to 0.5 nM in experiment [3]; 0.1 to 0.5 nM in experiment [4]; less than 1 nM in experiment [5].
Take `COc1ccc2c(c1)nc(O[C@@H]1C[C@H]3C(=O)N[C@]4(C(=O)NS(=O)(=O)C5(C)CC5)C[C@H]4/C=C\CCCCC[C@H](NC(=O)c4cc(C)on4)C(=O)N3C1)c1ccccc12`: the EC50 in experiment [1] is 0.1 to 0.5 nM; in experiment [2], 0.1 to 0.5 nM; in experiment [3] it was less than 0.1 nM; in experiment [4], 0.1 to 0.5 nM; in experiment [5] it was more than 1 nM.
For `Cc1ccc(C(=O)N[C@H]2CCCCC/C=C\[C@@H]3C[C@@]3(C(=O)NS(=O)(=O)C3(C)CC3)NC(=O)[C@@H]3C[C@@H](Oc4nc5cc(F)ccc5c5ccccc45)CN3C2=O)s1`, the EC50 in experiment [1] is 0.5 to 1 nM; in experiment [2] it was 0.1 to 0.5 nM; in experiment [3], 0.1 to 0.5 nM; in experiment [4], 0.1 to 0.5 nM; in experiment [5], less than 1 nM.
Consider `CC1(S(=O)(=O)NC(=O)[C@@]23C[C@H]2/C=C\CCCCC[C@H](NC(=O)c2ccc(F)s2)C(=O)N2C[C@H](Oc4nc5cc(F)ccc5c5ccccc45)C[C@H]2C(=O)N3)CC1`, for which the EC50 was 0.5 to 1 nM in experiment [1]; 0.1 to 0.5 nM in experiment [2]; less than 0.1 nM in experiment [3]; 0.1 to 0.5 nM in experiment [4]; more than 1 nM in experiment [5].
